Reference: patent publication US5610159A, “N-oxides of morpholine derivatives and their use as therapeutic agents” (Merck Sharp & Dohme Limited, priority 1995, dated 1997)

Experiment: stability of crystals on storage
Assay type: physicochemical
Method: Dimethylamine (approximately 10 ml) was condensed at -80° C. in a pressure tube and to this was added a solution of N-(4-azidobut-2-ynyl)-2-(R)-(1-(R)-(3,5-bis(trifluoromethyl)phenyl)ethoxy)-3-(S)-(4-fluorophenyl)morpholine (3.2 g) in dioxan (15 ml). The tube was sealed and the solution was heated at 90° C. for 16 h. The solution was evaporated to dryness and the residue chromatographed on silica gel (eluting with 5% methanol in dichloromethane containing 0.25% ammonia (SG. 0.88)) and the fractions containing the desired product were evaporated in vacuo to give the title compound. To a solution of this residue in diethyl ether was added 1M-HCl in methanol. The solution was evaporated to dryness and redissolved in diethyl ether to give crystals of the title compound hydrochloride salt m.p. 194°-198° C., [α]^22D+65.0° (c=0.5, H2 O).

stability of crystals (at 40° C.): stable for at least five days
stability of crystals (at 40° C./75% relative humidity): stable for at least five days
stability of crystals (at 80° C.): stable for at least five days
stability of crystals (at 2000LUX): stable for at least five days
Compound: C[C@@H](O[C@H]1OCCN(Cc2nn[nH]c2CN(C)C)[C@H]1c1ccc(F)cc1)c1cc(C(F)(F)F)cc(C(F)(F)F)c1 [Description 9]
